Test results from ChEMBL document CHEMBL6127128, “Discovery of the First-in-Class Dual-Target ROCK/HDAC Inhibitor with Potent Antitumor Efficacy in Vivo That Trigger Antitumor Immunity” (J Med Chem, 2024).
pIC50: −log10 of the molar value. Values after ≈ are worked out from the molar mass of the structure shown. Active and inactive are the calls of the source. No cut-off for these calls is given here.

Experiments:
[1] = test system: Mus musculus; test: Induction of immunogenic cell death-associated DAMP release in tumor of Balb/c mouse implanted with mouse 4T1 cells assessed as extranuclear diffusion of HMGB1 by measuring decrease in red fluorescence aggregates at 25 to 50 mg/kg, po administered daily for 15 days by immunofluorescence analysis; type: functional, organism-based; conditions: dose 25-50 mg/kg, time 15.0 day
[2] = test system: 4T1; test: Antitumor immunity against mouse 4T1 cells implanted in Balb/c mouse assessed as increase in CD86+ dendritic cells in tumor tissue at 50 mg/kg, po administered daily for 15 days by immunohistochemistry relative to SAHA; type: functional; conditions: time 15 day
[3] = Toxicity against Balb/c mouse implanted with mouse 4T1 cells assessed as effect on morphological changes in spleen at 25 to 50 mg/kg, po administered daily for 15 days by Hematoxylin-Eosin staining based analysis; type: organism-based; conditions: in vivo, 360 h, dose 25-50 mg/kg, time 15 day
[4] = test system: Mus musculus; test: Induction of immunogenic cell death-associated DAMP release in tumor of Balb/c mouse implanted with mouse 4T1 cells assessed as increase in CRT expression at 25 to 50 mg/kg, po administered daily for 15 days by immunofluorescence analysis; type: functional, organism-based; conditions: dose 25-50 mg/kg, time 15.0 day
[5] = test system: 4T1; test: Antitumor immunity against mouse 4T1 cells implanted in Balb/c mouse assessed as increase in CD8+ T cells in tumor tissue at 25 mg/kg, po administered daily for 15 days by flow cytometry; type: functional, organism-based; conditions: time 15.0 day
[6] = target: Histone deacetylase 2 (Homo sapiens, UniProt Q92769); test: Inhibition of HDAC2 (unknown origin) using Ac-Leu-Gly-Lys(Ac)-AMC as substrate preincubated for 5 mins followed by substrate addition for 30 mins and measured following trypsin addition for 30 mins by fluorescence based analysis
[7] = target: Rho-associated protein kinase 1 (Homo sapiens, UniProt Q13464); test: Inhibition of N-terminal GST-tagged human recombinant ROCK1 (17 to 535 residues) expressed in baculovirus-infected Sf9 cells by HTRF KinEASE assay
[8] = target: T1, Polyamine deacetylase HDAC10 (Homo sapiens, UniProt Q969S8); test: Inhibition of HDAC10 (unknown origin) using Ac-Arg-His-Lys(Ac)-Lys(Ac)-AMC as substrate preincubated for 5 mins followed by substrate addition for 30 mins and measured following trypsin addition for 30 mins by fluorescence based analysis
T1 sequence (Q969S8 whole entry): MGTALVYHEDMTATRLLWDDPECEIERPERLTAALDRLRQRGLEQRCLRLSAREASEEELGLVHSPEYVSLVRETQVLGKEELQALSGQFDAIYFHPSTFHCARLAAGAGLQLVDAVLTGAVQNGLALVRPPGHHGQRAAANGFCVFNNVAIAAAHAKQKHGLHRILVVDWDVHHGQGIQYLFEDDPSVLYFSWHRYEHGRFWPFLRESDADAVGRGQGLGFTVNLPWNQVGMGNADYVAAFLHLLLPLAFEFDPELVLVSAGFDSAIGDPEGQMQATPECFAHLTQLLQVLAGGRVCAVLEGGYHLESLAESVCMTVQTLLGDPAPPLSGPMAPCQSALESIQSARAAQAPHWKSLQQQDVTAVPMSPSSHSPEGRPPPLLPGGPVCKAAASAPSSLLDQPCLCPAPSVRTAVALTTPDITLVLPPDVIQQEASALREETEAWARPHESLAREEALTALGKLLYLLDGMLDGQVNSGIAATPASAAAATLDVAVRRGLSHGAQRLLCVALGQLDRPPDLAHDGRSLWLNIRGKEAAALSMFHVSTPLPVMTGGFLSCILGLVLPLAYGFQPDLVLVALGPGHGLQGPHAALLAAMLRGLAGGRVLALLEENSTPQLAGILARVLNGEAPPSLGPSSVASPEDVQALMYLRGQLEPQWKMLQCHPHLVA

[9] = test system: 4T1; test: Antitumor immunity against mouse 4T1 cells implanted in Balb/c mouse assessed as increase in CD86+ dendritic cells in tumor tissue at 25 mg/kg, po administered daily for 15 days by immunohistochemistry; type: functional, organism-based; conditions: time 15.0 day
[10] = Aqueous solubility of the compound in aqueous buffer at pH 7.4; type: physicochemical
[11] = test system: 4T1; test: Antitumor immunity against mouse 4T1 cells implanted in Balb/c mouse assessed as increase in CD40+ dendritic cells in tumor tissue at 50 mg/kg, po administered daily for 15 days by immunohistochemistry relative to SAHA; type: functional; conditions: time 15 day
[12] = AUC (0 to infinity) in Balb/c mouse at 1 mg/kg, iv measured for 24 hrs by LC-MS/MS analysis; type: ADME, organism-based; conditions: in vivo
[13] = test system: 4T1; test: Antitumor immunity against mouse 4T1 cells implanted in Balb/c mouse assessed as increase in CD4+ T cells in tumor tissue at 50 mg/kg, po administered daily for 15 days by flow cytometry relative to SAHA; type: functional; conditions: time 15 day

Sequence of Histone deacetylase 2 (Q92769 whole entry, the tested form may be a part): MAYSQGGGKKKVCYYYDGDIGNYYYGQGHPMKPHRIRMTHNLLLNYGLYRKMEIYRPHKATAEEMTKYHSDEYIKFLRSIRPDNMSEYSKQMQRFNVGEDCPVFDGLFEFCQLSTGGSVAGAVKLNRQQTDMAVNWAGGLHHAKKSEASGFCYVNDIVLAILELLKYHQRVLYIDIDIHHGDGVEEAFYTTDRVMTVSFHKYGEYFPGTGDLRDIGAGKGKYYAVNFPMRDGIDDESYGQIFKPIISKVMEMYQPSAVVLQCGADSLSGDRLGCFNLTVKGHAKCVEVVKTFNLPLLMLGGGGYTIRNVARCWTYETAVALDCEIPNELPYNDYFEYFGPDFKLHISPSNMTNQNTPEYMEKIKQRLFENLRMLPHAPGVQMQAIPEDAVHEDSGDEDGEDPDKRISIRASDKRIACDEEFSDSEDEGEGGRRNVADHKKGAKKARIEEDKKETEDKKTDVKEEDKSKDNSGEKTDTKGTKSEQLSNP
Sequence of Rho-associated protein kinase 1 (Q13464 whole entry, the tested form may be a part): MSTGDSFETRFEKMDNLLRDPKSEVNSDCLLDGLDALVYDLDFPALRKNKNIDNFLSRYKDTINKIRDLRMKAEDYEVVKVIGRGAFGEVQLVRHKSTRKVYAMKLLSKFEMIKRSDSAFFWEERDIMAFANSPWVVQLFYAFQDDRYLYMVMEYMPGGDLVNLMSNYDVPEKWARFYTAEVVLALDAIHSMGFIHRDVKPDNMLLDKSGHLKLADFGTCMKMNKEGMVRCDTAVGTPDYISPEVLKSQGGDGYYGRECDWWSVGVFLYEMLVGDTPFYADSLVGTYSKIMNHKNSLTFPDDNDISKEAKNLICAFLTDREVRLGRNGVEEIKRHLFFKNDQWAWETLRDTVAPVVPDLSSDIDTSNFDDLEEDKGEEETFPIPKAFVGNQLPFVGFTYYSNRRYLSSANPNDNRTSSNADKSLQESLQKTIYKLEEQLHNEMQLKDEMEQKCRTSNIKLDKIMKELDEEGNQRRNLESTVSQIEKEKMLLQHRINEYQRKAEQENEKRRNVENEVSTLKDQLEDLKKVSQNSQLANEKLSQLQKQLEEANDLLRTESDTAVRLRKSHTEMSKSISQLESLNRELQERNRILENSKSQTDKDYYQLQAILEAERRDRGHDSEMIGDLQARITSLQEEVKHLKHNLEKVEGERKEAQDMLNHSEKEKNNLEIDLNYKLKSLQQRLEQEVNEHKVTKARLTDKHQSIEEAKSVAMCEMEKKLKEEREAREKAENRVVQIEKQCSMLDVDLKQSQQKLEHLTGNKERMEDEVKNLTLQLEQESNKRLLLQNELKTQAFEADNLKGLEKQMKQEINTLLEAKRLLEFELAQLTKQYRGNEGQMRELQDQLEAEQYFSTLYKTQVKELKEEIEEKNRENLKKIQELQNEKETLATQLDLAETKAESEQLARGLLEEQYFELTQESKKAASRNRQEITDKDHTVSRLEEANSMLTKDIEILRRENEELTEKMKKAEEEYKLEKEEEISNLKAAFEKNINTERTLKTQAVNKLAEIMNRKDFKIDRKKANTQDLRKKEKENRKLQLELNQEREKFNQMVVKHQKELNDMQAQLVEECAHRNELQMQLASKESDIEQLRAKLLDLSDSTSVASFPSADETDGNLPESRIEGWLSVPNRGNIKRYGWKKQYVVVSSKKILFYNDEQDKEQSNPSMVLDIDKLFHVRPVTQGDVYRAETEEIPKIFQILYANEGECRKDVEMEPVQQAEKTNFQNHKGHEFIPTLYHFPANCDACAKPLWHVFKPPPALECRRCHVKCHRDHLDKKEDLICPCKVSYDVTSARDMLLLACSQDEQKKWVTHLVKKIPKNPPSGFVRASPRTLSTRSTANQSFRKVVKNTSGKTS

pIC50 [6]: 8.10
pIC50 [7]: 7.24
pIC50 [8]: < 5.00
solubility [10]: 0.695 µg/mL (≈ 1.8 µM)
AUC(0-inf) [12]: 89.3 ng·h/mL
Compound: O=C(CCCCCCNC(=O)c1cc2cc(-c3cn[nH]c3)ccc2s1)NO
Activity [1]: Active
fold change (FC) [2]: 1.82
Activity [3]: Non-Toxic
Activity [4]: Active
Activity [5]: Active
Activity [9]: Active
fold change (FC) [11]: 2.3
fold change (FC) [13]: 1.82
